Here are results for 12 compounds from patent US7105534B2, “Imidazo[1,2-α]pyridine ether compounds as ion channel modulators” (Cardiome Pharma Corp., priority 2000, dated 2006).

Counter-ions that a name gives are not always drawn.

Series [1] deals with T1, Kv1.5 (Homo sapiens, UniProt P22460).
T1 construct: expressed in transfected cells; host or cells: HEK cells, transient transfection, vector pCDNA3
Kind of series: Patch-clamp inhibition of cloned ion channel current in transfected HEK cells: Kv1.5. In kind it is cell-based. To be noted: steady-state current, -80 mV to +60 mV. How it is done: (§1) The relevant cloned ion channels (e.g. cardiac hH1, Kv1.4, Kv1.5, Kv4.2, Kv2.1, HERG etc.) are studied by transient transfection into HEK cells using the mammalian expression vector pCDNA3. Transfections for each channel type are carried out separately to allow individual study of the ion channel of interest. Cells expressing channel protein are detected by cotransfecting cells with the vector pHook-1 (Invitrogen, San Diego, Calif., USA). […] Equal concentrations of individual channel and pHook DNA are incubated with 10× concentration of lipofectAce in Modified Eagle's Medium (MEM, Canadian Life Technologies) and incubated with parent HEK cells plated on 25 mm culture dishes. After 3–4 hours the solution is replaced with a standard culture medium plus 20% fetal bovine serum and 1% antimycotic. Transfected cells are maintained at 37C in an air/5% CO2 incubator in 25 mm Petri dishes plated on glass coverslips for 24–48 hours to allow channel expression to occur. 20 min prior to experiments, cells are treated with beads coated with phOX. After 15 min, excess beads are […] off with cell culture medium and cells which had beads stuck to them are used for electrophysiological tests.
(§2) For whole-cell recording the control pipette filling solution contained (in mM): KCl, 130; EGTA, 5; MgCl2, 1; HEPES, 10; Na2ATP, 4; GTP, 0.1; and is adjusted to pH 7.2 with KOH. The control bath solution contained (in mM): NaCl, 135; KCI, 5; sodium acetate, 2.8; MgCl2, 1; HEPES, 10; CaCl2, 1; and is adjusted to pH 7.4 with NaOH. The test ion channel modulating compound is dissolved to 10 mM stock solutions in water and used at concentrations between 0.5 and 100 μM.
(§3) Coverslips containing cells are removed from the incubator before experiments and placed in a superfusion chamber (volume 250 μl) containing the control bath solution at 22C to 23C. All recordings are made via the variations of the patch-clamp technique, using an Axopatch 200A amplifier (Axon Instruments, CA). Patch electrodes are pulled from thin-walled borosilicate glass (World Precision Instruments; FL) on a horizontal micropipette puller, fire-polished, and filled with appropriate solutions. Electrodes had resistances of […] when filled with control filling solution. Analog capacity compensation is used in all whole cell measurements. In some experiments, leak subtraction is applied to data. Membrane potentials have not been corrected for any junctional potentials that arose between the pipette and bath solution. Data are filtered at 5 to 10 kHz before digitization and stored on a microcomputer for later analysis using the pClamp6 software (Axon Instruments, Foster City, Calif.). Due to the high level of expression of channel cDNA's in HEK cells, there is no need for signal averaging. The average cell capacitance is quite small, and the absence of ionic current at negative membrane potentials allowed faithful leak subtraction of data.
(§4) The concentration-response curves for changes in peak and steady-state current produced by the test compound are computer-fitted to the Hill equation: f=1−1/[1+([…])^n] [1]
(§5) where f is the fractional current (f=Idrug/Icontrol) at drug concentration [D]; IC50 is the concentration producing half-maximal inhibition and n is the Hill coefficient.
(§6) Compounds of the present invention may be evaluated by this method. […] Block is determined from the decrease in peak hH1 Na^+ current, or in steady-state Kv1.5 and integrated Kv4.2 current in the presence of drug. To record Na^+ current, cells are depolarized from the holding potential of −100 mV to a voltage of −30 mV for 10 ms to fully open and inactivate the channel. To record Kv1.5 and Kv4.2 current, cells are depolarized from the holding potential of −80 mV to a voltage of +60 mV for 200 ms to fully open the channel. Currents are recorded in the steady-state at a range of drug concentrations during stimulation every 4 s. […]
On the technique in general: Patch clamp records ionic current or voltage across a cell membrane.

Series [2] concerns the target T2, hH1 Na+ current (Homo sapiens, UniProt Q14524).
T2 construct: expressed in transfected cells; host or cells: HEK cells, transient transfection, vector pCDNA3
The series is described as follows: Patch-clamp inhibition of cloned ion channel current in transfected HEK cells: Na. In kind it is cell-based. To be noted: peak hH1 Na+ current, -100 mV to -30 mV. As for the experimental part: as §1, §2, §3, §4, §5, §6

Series [3] relates to Sprague Dawley rats. Kind of series: Cardiovascular and behavioral effects: ECG changes during i.v. infusion in conscious rats. In kind it is in vivo, rat. As for the experimental part:
Preparative surgery is performed in Sprague Dawley rats weighing 200–300 gm and anaesthetized with 65 mg/kg (i.p.) pentobarbital. The femoral artery and vein are cannulated using polyethylene (PE)-10 tubing. Prior to surgery, this PE-10 tubing had been annealed to a wider gauge (PE-50) tubing for externalization. The cannulated PE-10/PE-50 tubing is passed through a trocar and exteriorised together with three (lead II) limb ECG leads (see below). The trocar is threaded under the skin of the back and out through a small incision at the mid-scapular region. A ground ECG electrode is inserted subcutaneously using a 20 gauge needle with the lead wire threaded through it. To place the other ECG electrodes, a small incision is made in the anterior chest region over the heart and ECG leads are inserted into the subcutaneous muscle layer in the region of the heart using a 20 guage needle. Other ECG leads are inserted into the subcutaneous muscle layer in the region near the base of the neck and shoulder (right side). The animal is returned to a clean recovery-cage with free access to food and water. The treatment and observational period for each animal commenced after a 24-hour recovery period.
A 15 min observational period is recorded followed by the intravenous infusion regime of the test compound at an initial dose of 2.0 μmol/kg/min (at 1 ml/hr). This rate is doubled every 5 minutes until one of the following effects is observed:
Blood pressure (BP), heart rate (HR) and ECG variables are continuously recorded while behavioral responses are also monitored and the total accumulative drug dose and drug infusion rate at which the response (such as convulsion, piloerection, ataxia, restlessness, compulsive chewing, lip-smacking, wet dog shake etc.) occurred are recorded.
Electrocardiograph (ECG) parameters: PR, QRS, QT1 (peak of T-wave), QT2 (midpoint of T-wave deflection) and hemodynamic parameters: BP and HR are analyzed using the automated analysis function in LabView (National Instruments) with a customized autoanalysis software (Nortran Pharmaceuticals). The infused dose producing 25% from control (D25) for all recorded ECG variables is determined.
Table 2 describes the results of the tests as D25 (micromol/kg) which are the doses required to produce a 25% increase in the ECG parameter measured (ne=not estimated). The increases in P-R interval and QRS interval indicate cardiac sodium channel blockade while the increase in Q-T interval indicates cardiac potassium channel blockade.

Series [4] deals with T3, HERG (Homo sapiens, UniProt Q12809).
T3 construct: expressed in transfected cells; host or cells: HEK cells, transient transfection, vector pCDNA3
Kind of series: Patch-clamp inhibition of cloned ion channel current in transfected HEK cells: HERG. The settings on record: whole-cell patch clamp. In kind it is cell-based. How it is done:
as §1, §2, §3, §4, §5, §6

Series [5] addresses T4, Kv4.2 (Homo sapiens, UniProt Q9NZV8).
T4 construct: expressed in transfected cells; host or cells: HEK cells, transient transfection, vector pCDNA3
T4 sequence (Q9NZV8 1-630): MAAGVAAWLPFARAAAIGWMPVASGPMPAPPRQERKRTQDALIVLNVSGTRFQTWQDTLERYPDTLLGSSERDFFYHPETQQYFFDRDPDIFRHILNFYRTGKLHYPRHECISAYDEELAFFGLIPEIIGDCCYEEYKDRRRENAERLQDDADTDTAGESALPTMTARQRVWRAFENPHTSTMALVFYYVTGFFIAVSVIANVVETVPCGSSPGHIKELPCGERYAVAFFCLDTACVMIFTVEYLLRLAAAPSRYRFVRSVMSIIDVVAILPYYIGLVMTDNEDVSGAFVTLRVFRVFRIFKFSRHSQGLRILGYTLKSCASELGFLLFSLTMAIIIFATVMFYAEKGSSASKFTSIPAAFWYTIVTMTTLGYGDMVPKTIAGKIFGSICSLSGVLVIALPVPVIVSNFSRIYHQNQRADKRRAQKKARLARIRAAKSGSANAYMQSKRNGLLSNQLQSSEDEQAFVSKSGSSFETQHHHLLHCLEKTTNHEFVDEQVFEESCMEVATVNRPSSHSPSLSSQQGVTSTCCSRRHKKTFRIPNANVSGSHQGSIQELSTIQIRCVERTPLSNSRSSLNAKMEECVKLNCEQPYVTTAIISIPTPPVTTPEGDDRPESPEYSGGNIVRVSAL
Kind of series: Patch-clamp inhibition of cloned ion channel current in transfected HEK cells: Kv4.2. In kind it is cell-based. To be noted: integrated current, -80 mV to +60 mV. How it is done: as §1, §2, §3, §4, §5, §6

T2 sequence (Q14524 whole entry): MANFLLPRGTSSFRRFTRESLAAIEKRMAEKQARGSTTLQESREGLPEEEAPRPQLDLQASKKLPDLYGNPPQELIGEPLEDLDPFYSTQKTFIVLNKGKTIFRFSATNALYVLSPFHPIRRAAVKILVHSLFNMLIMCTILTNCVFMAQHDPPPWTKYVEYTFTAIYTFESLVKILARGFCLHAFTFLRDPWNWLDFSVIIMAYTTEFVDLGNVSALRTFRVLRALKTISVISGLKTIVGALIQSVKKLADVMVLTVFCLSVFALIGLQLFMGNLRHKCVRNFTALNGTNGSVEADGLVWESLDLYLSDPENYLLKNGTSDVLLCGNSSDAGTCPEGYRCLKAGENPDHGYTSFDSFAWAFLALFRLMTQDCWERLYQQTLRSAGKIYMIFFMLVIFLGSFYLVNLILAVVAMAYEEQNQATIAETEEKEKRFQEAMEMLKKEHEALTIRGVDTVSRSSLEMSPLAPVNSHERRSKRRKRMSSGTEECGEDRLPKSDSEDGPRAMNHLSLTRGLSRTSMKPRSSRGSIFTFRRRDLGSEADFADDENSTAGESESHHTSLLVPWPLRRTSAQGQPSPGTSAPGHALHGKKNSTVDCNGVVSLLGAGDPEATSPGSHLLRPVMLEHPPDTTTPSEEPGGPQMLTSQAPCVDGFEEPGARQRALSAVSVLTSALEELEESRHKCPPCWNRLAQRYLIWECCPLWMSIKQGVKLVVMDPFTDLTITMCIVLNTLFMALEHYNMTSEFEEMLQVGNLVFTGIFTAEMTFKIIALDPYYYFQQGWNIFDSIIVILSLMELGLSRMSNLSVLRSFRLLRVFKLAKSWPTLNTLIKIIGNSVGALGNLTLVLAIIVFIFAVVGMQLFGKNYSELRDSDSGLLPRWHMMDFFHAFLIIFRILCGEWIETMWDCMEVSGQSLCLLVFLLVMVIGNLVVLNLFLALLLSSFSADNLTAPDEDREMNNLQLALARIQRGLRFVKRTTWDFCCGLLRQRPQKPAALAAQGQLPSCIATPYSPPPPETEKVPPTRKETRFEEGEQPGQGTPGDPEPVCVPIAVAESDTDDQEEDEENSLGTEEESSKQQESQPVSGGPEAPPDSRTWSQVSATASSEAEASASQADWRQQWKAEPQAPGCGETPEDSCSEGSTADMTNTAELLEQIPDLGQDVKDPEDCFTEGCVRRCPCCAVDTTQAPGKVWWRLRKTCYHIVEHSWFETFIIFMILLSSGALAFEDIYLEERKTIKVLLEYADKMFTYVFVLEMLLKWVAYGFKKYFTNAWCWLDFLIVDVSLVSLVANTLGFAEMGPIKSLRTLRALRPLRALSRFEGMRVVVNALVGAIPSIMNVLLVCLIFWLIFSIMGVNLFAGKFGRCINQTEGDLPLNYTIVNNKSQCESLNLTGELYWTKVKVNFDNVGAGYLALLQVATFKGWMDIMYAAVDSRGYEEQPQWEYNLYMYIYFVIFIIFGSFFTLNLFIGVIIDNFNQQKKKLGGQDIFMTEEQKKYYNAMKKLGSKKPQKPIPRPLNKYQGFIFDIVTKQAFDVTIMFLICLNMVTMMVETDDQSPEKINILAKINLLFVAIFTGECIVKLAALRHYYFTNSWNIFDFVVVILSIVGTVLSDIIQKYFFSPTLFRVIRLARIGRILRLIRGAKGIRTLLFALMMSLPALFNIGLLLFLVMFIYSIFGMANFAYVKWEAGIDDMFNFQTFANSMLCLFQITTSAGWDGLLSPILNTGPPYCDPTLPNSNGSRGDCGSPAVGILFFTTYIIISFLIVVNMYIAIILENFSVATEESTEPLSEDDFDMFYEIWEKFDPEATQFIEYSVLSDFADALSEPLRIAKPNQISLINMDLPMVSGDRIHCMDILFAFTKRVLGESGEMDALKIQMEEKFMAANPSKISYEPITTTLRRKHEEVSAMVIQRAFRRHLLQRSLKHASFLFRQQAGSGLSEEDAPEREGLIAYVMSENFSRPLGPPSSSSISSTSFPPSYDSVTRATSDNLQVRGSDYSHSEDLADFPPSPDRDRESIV
T3 sequence (Q12809 whole entry): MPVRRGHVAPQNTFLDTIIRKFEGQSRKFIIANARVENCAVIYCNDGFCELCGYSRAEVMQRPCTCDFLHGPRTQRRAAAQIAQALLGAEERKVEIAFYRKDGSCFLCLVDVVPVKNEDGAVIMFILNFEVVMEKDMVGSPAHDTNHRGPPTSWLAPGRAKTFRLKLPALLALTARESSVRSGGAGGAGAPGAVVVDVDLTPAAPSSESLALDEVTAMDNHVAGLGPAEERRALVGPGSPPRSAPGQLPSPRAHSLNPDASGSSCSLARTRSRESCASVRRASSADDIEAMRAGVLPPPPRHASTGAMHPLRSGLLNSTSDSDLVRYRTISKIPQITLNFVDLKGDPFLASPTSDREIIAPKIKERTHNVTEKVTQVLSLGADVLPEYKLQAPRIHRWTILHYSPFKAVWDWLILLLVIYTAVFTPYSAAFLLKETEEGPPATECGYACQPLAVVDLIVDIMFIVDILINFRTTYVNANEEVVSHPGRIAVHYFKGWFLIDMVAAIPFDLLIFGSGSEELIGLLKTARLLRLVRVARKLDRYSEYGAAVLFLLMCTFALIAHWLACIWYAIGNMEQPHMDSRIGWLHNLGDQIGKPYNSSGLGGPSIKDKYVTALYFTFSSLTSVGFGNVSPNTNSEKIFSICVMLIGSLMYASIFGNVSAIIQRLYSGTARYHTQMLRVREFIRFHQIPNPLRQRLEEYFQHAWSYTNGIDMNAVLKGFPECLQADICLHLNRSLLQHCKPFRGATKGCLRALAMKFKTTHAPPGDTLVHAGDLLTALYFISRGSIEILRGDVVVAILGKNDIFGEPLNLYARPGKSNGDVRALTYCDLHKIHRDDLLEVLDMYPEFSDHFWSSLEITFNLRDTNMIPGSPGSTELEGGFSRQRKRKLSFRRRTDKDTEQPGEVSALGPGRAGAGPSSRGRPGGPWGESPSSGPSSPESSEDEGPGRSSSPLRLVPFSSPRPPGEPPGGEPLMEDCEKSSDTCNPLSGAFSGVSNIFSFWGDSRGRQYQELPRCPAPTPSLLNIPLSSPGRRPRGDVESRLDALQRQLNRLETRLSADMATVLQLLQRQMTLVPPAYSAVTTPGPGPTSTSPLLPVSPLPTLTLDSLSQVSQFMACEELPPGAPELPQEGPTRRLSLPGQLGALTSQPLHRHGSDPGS
T1 sequence (P22460 whole entry): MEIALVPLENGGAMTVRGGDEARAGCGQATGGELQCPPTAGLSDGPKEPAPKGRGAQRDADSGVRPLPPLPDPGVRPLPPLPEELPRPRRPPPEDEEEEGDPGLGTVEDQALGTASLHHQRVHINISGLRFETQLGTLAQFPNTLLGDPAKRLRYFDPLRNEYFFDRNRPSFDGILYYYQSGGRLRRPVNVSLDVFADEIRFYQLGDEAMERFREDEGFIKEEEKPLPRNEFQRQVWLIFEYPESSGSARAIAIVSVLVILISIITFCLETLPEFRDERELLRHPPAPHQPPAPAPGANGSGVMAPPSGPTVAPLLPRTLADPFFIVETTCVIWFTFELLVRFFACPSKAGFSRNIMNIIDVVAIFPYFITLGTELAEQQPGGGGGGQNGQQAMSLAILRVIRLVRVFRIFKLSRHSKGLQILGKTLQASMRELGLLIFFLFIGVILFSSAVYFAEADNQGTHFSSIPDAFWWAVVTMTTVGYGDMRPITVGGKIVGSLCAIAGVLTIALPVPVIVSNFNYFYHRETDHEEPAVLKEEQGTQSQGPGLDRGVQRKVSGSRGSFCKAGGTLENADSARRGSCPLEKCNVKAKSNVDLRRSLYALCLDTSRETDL

The term IC50 denotes the concentration needed to halve the response being measured. A high value points to weaker potency in that assay. Take `Cc1cn2cccc(OCCCc3ccccc3)c2n1` [Compound 2, 2-METHYL-8-[3-PHENYLPROPOXY]IMIDAZO[1,2-α]PYRIDINE MONOHYDROCHLORIDE]: the IC50 was found to be 4 µM in series [1], 34 µM in series [2], 0.06 µM in series [4] and 7 µM in series [5]. For the same compound, the “D25 QT (dose required to produce a 25% increase in Q-T interval)” value in series [3] (indicates cardiac potassium channel blockade) was found to be 16 µmol/kg. Besides, the “D25 PR (dose required to produce a 25% increase in P-R interval)” value in series [3] (indicates cardiac sodium channel blockade) is 24 µmol/kg.
In the case of `CCc1cn2cccc(OCCCc3ccc(Cl)cc3Cl)c2n1` [Compound 4, 8-[3-(2,4-DICHLOROPHENYL)PROPOXY]-2-ETHYLIMIDAZO[1,2-α]PYRIDINE MONOHYDROCHLORIDE], the IC50 in series [1] is 0.1 µM; in series [2], 1 µM; in series [4], 0.02 µM; in series [5] it was 0.8 µM.
Take `Clc1ccc(CCCOc2cccn3cc(-c4ccccc4)nc23)c(Cl)c1` [Compound 5, 8-[3-(2,4-DICHLOROPHENYL)PROPOXY]-2-PHENYLIMIDAZO[1,2-α]PYRIDINE MONOHYDROCHLORIDE]: the IC50 in series [1] turned out to be 170 µM; in series [2], 239 µM; in series [4], 0.9 µM; in series [5] it was 71 µM.
As for `Cc1cn2cccc(OCCCc3c(Cl)cccc3Cl)c2n1` [Compound 6, 8-[3-(2,6-DICHLOROPHENYL)PROPOXY]-2-Methylimidazo[1,2-α]PYRIDINE MONOHYDROCHLORIDE], the IC50 in series [1] stood at 0.8 µM; in series [2], 0.3 µM; in series [4], 0.3 µM; in series [5] it was 0.9 µM.
With `Cc1cn2cccc(OCc3ccccc3C(F)(F)F)c2n1` [Compound 7, 2-METHYL-8-[2-(TRIFLUOROMETHYL)BENZYLOXY]IMIDAZO[1,2-α]PYRIDINE MONOHYDROCHLORIDE], the IC50 in series [1] worked out at 5 µM; in series [2] it was 15 µM; in series [4], 0.8 µM; in series [5], 10 µM.
On the same counts, the results for `Cc1cn2cccc(OCc3ccc(Cl)cc3Cl)c2n1` [Compound 8, 8-[2,4-DICHLOROBENZYLOXY]-2-METHYLIMIDAZO[1,2-α]PYRIDINE MONOHYDROCHLORIDE] are 0.8 µM, 1210 µM, 0.4 µM and 11 µM.
For `Cc1cn2cccc(OCCCC3CCCCC3)c2n1` [Compound 9, 8-[(3-CYCLOHEXYL)PROPOXY]-2-METHYLIMIDAZO[1,2-α]PYRIDINE MONOHYDROCHLORIDE], the IC50 in series [1] turned out to be 1 µM; in series [2], 14 µM; in series [4] it was 0.05 µM; in series [5] it was 3 µM.
On the same counts, the results for `Cc1cn2cccc(OCCCCCc3ccccc3)c2n1` [Compound 10, 2-METHYL-8-[5-PHENYL-1-PENTOXY]IMIDAZO[1,2-α]PYRIDINE MONOHYDROCHLORIDE] are 0.8 µM, 12 µM, 0.1 µM and 1 µM.
On the same counts, the results for `Cc1cn2cccc(OCCCOCc3ccccc3)c2n1` [Compound 11, 8-[3-BENZYLOXY-1-PROPOXY]-2-METHYLIMIDAZO[1,2-α]PYRIDINE MONOHYDROCHLORIDE] are 11 µM, 152 µM, 0.08 µM and 14 µM.
Turning to `Cc1cn2cccc(OCCC(c3ccccc3)c3ccccc3)c2n1` [Compound 12, 8-[3,3-DIPHENYL-1-PROPOXY]-2-METHYLIMIDAZO[1,2-α]PYRIDINE MONOHYDROCHLORIDE], the IC50 was 0.6 µM in series [1], 3 µM in series [2], 0.004 µM in series [4] and 1 µM in series [5].
On the same counts, the results for `Cc1cn2cccc(OCC3(c4ccccc4)CC3)c2n1` [Compound 13, 2-METHYL-8-[(1-PHENYL-CYCLOPROPYL)METHOXY]IMIDAZO[1,2-α]PYRIDINE MONOHYDROCHLORIDE] are 0.7 µM, 8 µM, 0.4 µM and 3 µM.
On to `FC(F)(F)c1cn2cccc(OCCCc3ccc(Cl)cc3Cl)c2n1` [Compound 15, 8-[3-(2,4-DICHLOROPHENYL)PROPOXY]-2-(TRIFLUOROMETHYL)IMIDAZO[1,2-α]PYRIDINE MONOHYDROCHLORIDE], for which the IC50 in series [1] came out at 0.1 µM; in series [2], 8 µM; in series [4], 1 µM; in series [5], 0.6 µM.
